{
  "source": "patent US7855294B2",
  "about": "“Cycloalkanopyridine derivative” (Banyu Pharmaceutical Co., Ltd., priority 2004, dated 2010)",
  "key": {"nociceptin receptor ORL1 [1]": {"biological_target": "T1, nociceptin receptor ORL1 (Homo sapiens, UniProt P41146)", "T1 sequence (P41146 whole entry)": "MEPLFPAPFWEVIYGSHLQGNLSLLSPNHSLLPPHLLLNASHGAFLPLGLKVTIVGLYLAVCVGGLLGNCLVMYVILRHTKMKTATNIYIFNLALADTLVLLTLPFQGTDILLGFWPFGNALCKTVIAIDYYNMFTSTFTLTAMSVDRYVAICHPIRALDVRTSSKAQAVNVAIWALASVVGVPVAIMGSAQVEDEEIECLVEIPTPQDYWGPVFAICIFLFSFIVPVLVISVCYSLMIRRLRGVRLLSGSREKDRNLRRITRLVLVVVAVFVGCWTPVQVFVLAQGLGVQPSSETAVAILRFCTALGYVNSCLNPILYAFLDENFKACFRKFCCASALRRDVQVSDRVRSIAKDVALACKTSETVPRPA", "assay": "Nociceptin receptor binding inhibition assay ([125I]Tyr14-Nociceptin, CHO/ORL1 membrane fractions, SPA beads)", "parameters": "expressed in transfected cells; membrane fractions", "protocol": "A cDNA that codes for a human nociceptin receptor gene was cloned into an expression vector pCR3 (by Invitrogen) to prepare pCR3/ORL1. Next, pCR3/ORL1 was transfected in CHO cells using a transfectam (by Nippongene) to obtain a stable expression strain (CHO/ORL1 cells) having resistance against 1 mg/ml G418. Membrane fractions were prepared from this stable expression strain to carry out a receptor binding assay. 11 μg of the membrane fraction, 50 pM [^125I]Tyr^14-Nociceptin (by Amersham Pharmacia), 1 mg of wheat germ agglutinin SPA beads (PVT based, by Amersham Pharmacia) and each test compound were suspended in an NC buffer (50 mM Hepes, 10 mM sodium chloride, 1 mM magnesium chloride, 2.5 mM calcium chloride, 0.1% BSA, 0.025% bacitracin, pH 7.4) and incubated at 37° C. for 60 minutes, and then the radioactivity of the culture was determined."}, "nociceptin receptor ORL1 [2]": {"biological_target": "T1, nociceptin receptor ORL1", "assay": "Antagonism against nociceptin-elicited G protein activation (GTPγ[35S] binding, CHO/ORL1 membrane)", "format": "biochemical", "parameters": "expressed in transfected cells; membrane preparation", "protocol": "CHO cells which stably expressed a nociceptin receptor ORL1 were used to investigate the action of each test compound against nociceptin-elicited G protein activation. A membrane prepared from the CHO/ORL1 cells, 50 nM nociceptin, 200 pM GTPγ[^35S] (by NEN), 1.5 mg of wheat germ agglutinin SPA beads (by Amersham Pharmacia) and each test compound were mixed in a GDP buffer (20 mM Hepes, 100 mM sodium chloride, 10 mM magnesium chloride, 1 mM EDTA, 5 μM GDP, pH 7.4) and incubated at 25° C. for 150 minutes, and then the radioactivity of the culture was determined."}, "male ICR (CD-1) mice": {"test_system": "male ICR (CD-1) mice", "assay": "Antagonism test: hypokinesis (suppression of motion) induced by a nociceptin agonist", "format": "in vivo", "settings": "test compound 1 to 10 mg/kg and nociceptin agonist 1 mg/kg hypodermically; motion for 60 minutes; difference between agonist group and solvent control group set to 100%", "protocol": "Using male ICR (CD-1) mice (weighing 20 to 40 g), antagonism to hypokinesis (suppression of motion) induced by a nociceptin agonist was observed. That is, the quantity of motion of each mouse in a 20 cm×30 cm×20 cm cage was measured with an infrared sensor. The test compound (1 to 10 mg/kg) as dissolved in either 0.5% methyl cellulose liquid or a solvent, and a nociceptin agonist (1 mg/kg) were administered to the test mice hypodermically, and the quantity of their motion for 60 minutes was measured. To the control group mice, the solvent only was administered. The evaluation was made by representing the quantity of motion of the mice administered with the test compound by percent, where the difference in the quantity of motion between the nociceptin agonist-administered group and that of the solvent-administered control group during the test time was set to be 100%."}},
  "note": "Where a name gives a salt, the structure may show the parent alone.",
  "data": [
    {"smiles": "O=C(O)C(O)C(O)C(=O)O.O[C@H]1C[C@H](CN2CCC(F)(c3ccccc3Cl)CC2)Cc2cccnc21", "note": "[Example 29, (6R,8S)-6-[4-(2-chlorophenyl)-4-fluoropiperidin-1-ylmethyl]-5,6,7,8-tetrahydroquinolin-8-ol mono-L-tartrate]", "values": [
      {"measurement": "IC50", "setting": "nociceptin receptor ORL1 [1]; read-out: IC50 value", "result": 4.1, "unit": "nM"},
      {"measurement": "IC50", "setting": "nociceptin receptor ORL1 [2]", "result": 4.7, "unit": "nM"},
      {"measurement": "Quantity of Motion (%)", "setting": "male ICR (CD-1) mice", "result": ">75", "unit": "%"}
    ]},
    {"smiles": "Cc1cc(F)ccc1[C@H]1CCN(C[C@@H]2CCc3cccnc3[C@@H](O)C2)C[C@@H]1O", "note": "(single isomer, unassigned) [Example 17, (7R,9S)-7-[(3R*,4R*)-(4-fluoro-o-tolyl)-3-hydroxypiperidin-1-ylmethyl]-6,7,8,9-tetrahydro-5H-cyclohepta[b]pyridin-9-ol monohydrochloride]", "values": [
      {"measurement": "Quantity of Motion (%)", "setting": "male ICR (CD-1) mice", "result": ">75", "unit": "%"}
    ]},
    {"smiles": "Cl.O[C@H]1C[C@H](CN2CC[C@H](c3ccc(F)cc3Cl)[C@@H](O)C2)Cc2cccnc21", "note": "[Example 33, (6R,8S)-6-[(3R,4R)-4-(2-chloro-4-fluorophenyl)-3-hydroxypiperidin-1-ylmethyl]-5,6,7,8-tetrahydroquinolin-8-ol monohydrochloride]", "values": [
      {"measurement": "Quantity of Motion (%)", "setting": "male ICR (CD-1) mice", "result": ">75", "unit": "%"}
    ]},
    {"smiles": "CC1(C)OC2(CCN(C[C@@H]3Cc4cccnc4[C@@H](O)C3)CC2)c2ccccc21.O=C(O)C(O)C(O)C(=O)O", "note": "[Example 25, (6R,8S)-6-(3,3-dimethyl-spiro[isobenzofuran-1(3H),4′-piperidin]-1′-ylmethyl)-5,6,7,8-tetrahydro-quinolin-8-ol mono-L-tartrate]", "values": [
      {"measurement": "IC50", "setting": "nociceptin receptor ORL1 [1]", "result": 2.5, "unit": "nM"},
      {"measurement": "IC50", "setting": "nociceptin receptor ORL1 [2]", "result": 4.2, "unit": "nM"},
      {"measurement": "Quantity of Motion (%)", "setting": "male ICR (CD-1) mice", "result": ">75", "unit": "%"}
    ]},
    {"smiles": "O[C@H]1C[C@H](CN2C3CCC2CC2(C3)OCc3cc(F)ncc32)CCc2cccnc21", "note": "(stereo partly drawn) (as salt: tartrate) [Example 23, (7R,9S)-7-(6′-aza-5′-fluoro-spiro[8-aza-bicyclo[3.2.1]-octa-3,1′(3′H)-isobenzofuran]-8-ylmethyl)-6,7,8,9-tetrahydro-5H-cyclohepta[b]pyridin-9-ol mono-L-tartrate]", "values": [
      {"measurement": "melting point", "result": "133 to 141", "unit": "°C"}
    ]},
    {"smiles": "O[C@H]1C[C@H](CN2C3CCC2CC2(C3)OCc3ccccc32)CCc2cccnc21", "note": "(stereo partly drawn) [Example 10, (7R,9S)-7-(spiro[8-aza-bicyclo[3.2.1]octa-3,1′(3′H)-isobenzofuran]-8-ylmethyl)-6,7,8,9-tetrahydro-5H-cyclohepta[b]pyridin-9-ol]", "values": [
      {"measurement": "IC50", "setting": "nociceptin receptor ORL1 [1]", "result": 0.37, "unit": "nM"},
      {"measurement": "IC50", "setting": "nociceptin receptor ORL1 [2]", "result": 0.08, "unit": "nM"}
    ]},
    {"smiles": "Cl.O[C@H]1C[C@H](CN2CC[C@H](c3ccccc3Cl)[C@@H](O)C2)CCc2cccnc21", "note": "(relative stereo) [Example 31, (7R,9S)-7-[(3R*,4R*)-4-(2-chlorophenyl)-3-hydroxypiperidin-1-ylmethyl]-6,7,8,9-tetrahydro-5H-cyclohepta[b]pyridin-9-ol monohydrochloride]", "values": [
      {"measurement": "IC50", "setting": "nociceptin receptor ORL1 [1]; read-out: IC50 value", "result": 6.7, "unit": "nM"},
      {"measurement": "IC50", "setting": "nociceptin receptor ORL1 [2]", "result": 2.1, "unit": "nM"},
      {"measurement": "Quantity of Motion (%)", "setting": "male ICR (CD-1) mice", "result": ">75", "unit": "%"}
    ]},
    {"smiles": "CC1(C)OC2(CC3CCC(C2)N3C[C@@H]2Cc3cccnc3[C@@H](O)C2)c2cnc(F)cc21", "note": "(stereo partly drawn) [Example 70, (6R,8S)-6-[(5′-fluoro-3′,3′-dimethyl-3′H-6′-azaspiro[8-azabicyclo[3.2.1]octane-3,1′-isobenzofuran]-8-yl)methyl]-5,6,7,8-tetrahydroquinolin-8-ol mono-L-tartrate]", "values": [
      {"measurement": "IC50", "setting": "nociceptin receptor ORL1 [1]", "result": 0.39, "unit": "nM"},
      {"measurement": "IC50", "setting": "nociceptin receptor ORL1 [2]", "result": 0.32, "unit": "nM"}
    ]},
    {"smiles": "O[C@H]1C[C@H](CN2C3CCC2CC2(C3)OCc3cc(F)ncc32)CCc2cccnc21", "note": "(stereo partly drawn) [Example 23, (7R,9S)-7-(6′-aza-5′-fluoro-spiro[8-aza-bicyclo[3.2.1]-octa-3,1′(3′H)-isobenzofuran]-8-ylmethyl)-6,7,8,9-tetrahydro-5H-cyclohepta[b]pyridin-9-ol mono-L-tartrate]", "values": [
      {"measurement": "IC50", "setting": "nociceptin receptor ORL1 [1]", "result": 0.53, "unit": "nM"},
      {"measurement": "IC50", "setting": "nociceptin receptor ORL1 [2]", "result": 1.2, "unit": "nM"}
    ]},
    {"smiles": "Cc1ccccc1[C@H]1CCN(C[C@@H]2CCc3cccnc3[C@@H](O)C2)C[C@@H]1O.O=C(O)C(O)C(O)C(=O)O", "note": "(relative stereo) [Example 16, (7R,9S)-7-[(3R*,4R*)-3-hydroxy-4-o-tolyl-piperidin-1-ylmethyl]-6,7,8,9-tetrahydro-5H-cyclohepta[b]pyridin-9-ol mono-L-tartrate]", "values": [
      {"measurement": "Quantity of Motion (%)", "setting": "male ICR (CD-1) mice", "result": ">75", "unit": "%"}
    ]},
    {"smiles": "Cl.O[C@@H]1[C@@H](c2ccc(F)cc2Cl)CC2CC[C@@H]1N2C[C@@H]1Cc2cccnc2[C@@H](O)C1", "note": "(relative stereo) [Example 71, (6R,8S)-6-[(1S*,2R*,3R*)-3-(2-chloro-4-fluorophenyl)-2-hydroxy-8-azabicyclo[3.2.1]octan-8-ylmethyl]-5,6,7,8-tetrahydroquinolin-8-ol monohydrochloride]", "values": [
      {"measurement": "IC50", "setting": "nociceptin receptor ORL1 [1]", "result": 1.4, "unit": "nM"},
      {"measurement": "IC50", "setting": "nociceptin receptor ORL1 [2]", "result": 0.68, "unit": "nM"},
      {"measurement": "melting point", "result": "238 °C (dec.)"}
    ]}
  ]
}
